Assay results as given in ChEMBL document CHEMBL1201862, “PubChem BioAssay data set” (2004).
Calls of active or inactive are those of the source.

How the values were obtained:
Estrogen receptor = target: T1, Estrogen receptor (Homo sapiens, UniProt P03372);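 note: potency for inhibiting coactivator peptide recruitment to the receptor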
T1 sequence (P03372 whole entry): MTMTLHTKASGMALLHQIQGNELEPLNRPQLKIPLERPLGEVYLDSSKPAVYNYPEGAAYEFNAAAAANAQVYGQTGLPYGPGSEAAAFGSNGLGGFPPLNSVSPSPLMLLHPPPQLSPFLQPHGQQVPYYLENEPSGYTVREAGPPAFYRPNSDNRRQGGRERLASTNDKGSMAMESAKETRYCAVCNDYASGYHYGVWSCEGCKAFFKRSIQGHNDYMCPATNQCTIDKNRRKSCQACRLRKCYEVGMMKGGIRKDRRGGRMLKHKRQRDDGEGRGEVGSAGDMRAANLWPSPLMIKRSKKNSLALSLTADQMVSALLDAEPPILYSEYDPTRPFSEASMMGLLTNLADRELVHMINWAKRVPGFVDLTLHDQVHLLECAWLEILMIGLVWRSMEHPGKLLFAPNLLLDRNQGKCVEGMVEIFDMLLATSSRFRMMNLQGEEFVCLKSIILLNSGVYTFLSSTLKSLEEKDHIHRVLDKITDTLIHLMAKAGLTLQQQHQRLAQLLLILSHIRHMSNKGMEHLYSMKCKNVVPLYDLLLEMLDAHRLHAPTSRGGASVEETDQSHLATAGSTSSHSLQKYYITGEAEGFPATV

[1] = target: T2, RNA-binding protein pos-1 (Caenorhabditis elegans, UniProt G5EF15); assay: disruptors of C. elegans POS-1 RNA interaction – biochemical, fluorescence polarization, dose response (AID 1964);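 note: purified POS-1 fused to maltose binding protein made in E. coli; potency of compounds blocking POS-1 binding to fluorescent RNA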
T2 sequence (G5EF15 whole entry): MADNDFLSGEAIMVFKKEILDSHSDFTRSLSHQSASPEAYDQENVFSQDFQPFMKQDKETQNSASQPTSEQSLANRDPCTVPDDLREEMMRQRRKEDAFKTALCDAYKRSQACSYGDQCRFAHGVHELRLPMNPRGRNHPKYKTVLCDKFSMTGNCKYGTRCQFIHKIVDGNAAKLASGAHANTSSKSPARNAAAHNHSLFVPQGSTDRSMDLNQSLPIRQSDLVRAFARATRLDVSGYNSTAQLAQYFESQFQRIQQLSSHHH

[2] = NIH3T3 cell viability loss – ATP luminescence, mouse fibroblasts, counter-screen, dose response (AID 2010); assay type: functional, cell-based;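 note: cells exposed to compound for about 90 hours before reading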
[3] = Trypanosoma cruzi growth suppression in host cells – NIH3T3 host cells, beta-gal luminescence, confirmation (AID 2044); assay type: functional, cell-based;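 note: intracellular parasites grown in NIH/3T3 mouse fibroblasts as host cells; luminescent beta-galactosidase reporter signal from transgenic T. cruzi replicating inside host cells; inhibitors lower the luminescence signal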
[4] = target: T3, Zinc finger protein mex-5 (Caenorhabditis elegans, UniProt Q9XUB2); assay: potency of MEX-5 RNA-binding blockers – biochemical, C. elegans, fluorescence polarization, dose response (AID 1960)
T3 sequence (Q9XUB2 whole entry): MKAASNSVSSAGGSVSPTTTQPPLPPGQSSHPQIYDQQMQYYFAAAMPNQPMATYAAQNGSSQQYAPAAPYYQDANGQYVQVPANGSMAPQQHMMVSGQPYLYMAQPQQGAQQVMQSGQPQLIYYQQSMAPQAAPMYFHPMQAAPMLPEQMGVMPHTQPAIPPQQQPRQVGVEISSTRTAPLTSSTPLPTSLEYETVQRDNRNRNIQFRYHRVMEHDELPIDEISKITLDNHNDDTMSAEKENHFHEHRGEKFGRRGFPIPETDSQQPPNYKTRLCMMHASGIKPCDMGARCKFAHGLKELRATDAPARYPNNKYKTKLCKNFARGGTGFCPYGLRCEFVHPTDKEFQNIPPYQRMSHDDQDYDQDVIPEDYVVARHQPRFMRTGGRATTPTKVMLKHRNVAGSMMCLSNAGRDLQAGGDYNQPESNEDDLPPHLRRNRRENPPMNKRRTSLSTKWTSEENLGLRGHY

[5] = target: Induced myeloid leukemia cell differentiation protein Mcl-1 (Homo sapiens, UniProt Q07820); assay type: functional
Nonstructural protein 1 = Nonstructural protein 1 (Influenza A virus, UniProt Q194T2); assay type: functional, Influenza A virus (A/California/07/2009(H1N1))
BJ [6] = assay: cells; assay type: functional, cell-based; details: Homo sapiens
BJ [7] = assay: BJ-TERT fibroblast viability loss – cell-based, RAS-independent, luminescence, dose response (AID 1933); assay type: functional; details: Homo sapiens
[8] = DRD fibroblast viability loss – cell-based, non-viral oncogenic, luminescence, dose response (AID 1934); assay type: functional; details: Homo sapiens
[9] = HEK-293T viability loss after treatment – luminescence, T-cell screen hits, cytotoxicity control for TCR NF-kB inhibitor project, dose response (AID 489026); assay type: functional, cell-based;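 note: cells exposed to compound about 14 hours before the viability readout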
BJ [10] = assay: BJ-TERT-LT-ST fibroblast viability loss – cell-based, RAS-independent, luminescence, dose response (AID 1935); assay type: functional; details: Homo sapiens;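 note: BJ fibroblasts immortalized with TERT plus LT and ST oncogenes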
Cytochrome P450 3A4 = Cytochrome P450 3A4 (Homo sapiens, UniProt P08684);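 note: CYP3A4 tested as one member of a cytochrome P450 panel screen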
Cytochrome P450 1A2 = target: T4, Cytochrome P450 1A2 (Homo sapiens, UniProt P05177);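 note: PubChem cytochrome P450 panel assay, CYP1A2 panel member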
T4 sequence (P05177 whole entry): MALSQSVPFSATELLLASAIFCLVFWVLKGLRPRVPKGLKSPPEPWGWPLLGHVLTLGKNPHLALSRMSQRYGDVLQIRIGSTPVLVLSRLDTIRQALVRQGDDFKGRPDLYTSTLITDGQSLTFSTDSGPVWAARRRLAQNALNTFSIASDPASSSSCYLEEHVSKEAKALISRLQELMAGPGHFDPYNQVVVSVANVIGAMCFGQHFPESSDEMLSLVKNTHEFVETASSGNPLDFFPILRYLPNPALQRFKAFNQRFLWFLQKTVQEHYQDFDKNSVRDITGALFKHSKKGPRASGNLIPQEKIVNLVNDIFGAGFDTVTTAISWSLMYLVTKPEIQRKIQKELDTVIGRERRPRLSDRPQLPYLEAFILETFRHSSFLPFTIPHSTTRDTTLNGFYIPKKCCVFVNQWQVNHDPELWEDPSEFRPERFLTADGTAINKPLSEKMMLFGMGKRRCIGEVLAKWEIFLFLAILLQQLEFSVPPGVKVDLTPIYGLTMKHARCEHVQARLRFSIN

[11] = target: T5, Long-chain-fatty-acid--AMP ligase FadD28 (Mycobacterium tuberculosis, UniProt P9WQ59); assay: Fluorescence polarization aasay to screen for inhibitors that compete for the binding of FadD28 to a bisubstrate Measured in Biochemical System Using Plate Reader - 2147-01_Inhibitor_Dose_CherryPick_Activity.; assay type: functional, Mycobacterium tuberculosis H37Rv
T5 sequence (P9WQ59 whole entry): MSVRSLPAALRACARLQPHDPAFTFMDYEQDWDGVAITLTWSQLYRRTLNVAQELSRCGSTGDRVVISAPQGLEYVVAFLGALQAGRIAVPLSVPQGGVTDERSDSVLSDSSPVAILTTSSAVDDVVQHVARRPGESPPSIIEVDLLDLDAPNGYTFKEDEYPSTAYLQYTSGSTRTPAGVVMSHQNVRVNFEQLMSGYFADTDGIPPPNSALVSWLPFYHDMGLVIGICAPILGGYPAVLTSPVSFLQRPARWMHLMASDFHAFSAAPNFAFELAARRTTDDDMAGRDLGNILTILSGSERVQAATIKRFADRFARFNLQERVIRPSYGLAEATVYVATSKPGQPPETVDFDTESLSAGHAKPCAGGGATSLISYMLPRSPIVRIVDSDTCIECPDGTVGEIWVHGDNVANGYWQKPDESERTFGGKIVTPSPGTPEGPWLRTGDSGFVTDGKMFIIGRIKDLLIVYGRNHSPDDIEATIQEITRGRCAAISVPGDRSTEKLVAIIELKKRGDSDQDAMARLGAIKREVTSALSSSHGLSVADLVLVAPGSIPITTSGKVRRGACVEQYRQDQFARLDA

INS1 = assay: INS-1E survival protection against cytokine death – cell-based, luminescence, retest, dose response (AID 449756); assay type: functional; details: Rattus norvegicus;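 note: cell death triggered by IL-1 beta plus TNF-alpha plus IFN-gamma mixture; protective hits raise ATP signal compared with cytokine alone wells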
[12] = target: T6, Heat shock factor protein 1 (Mus musculus, UniProt P38532); assay: enhancement of HSF1-driven luciferase signal – cell-based, NIH3T3, luminescence, dose retest, confirmation (AID 435004); assay type: functional;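 note: stress induced by proteasome inhibitor MG132 added 30 min after compound; luciferase reporter driven by HSF1 response element in NIH3T3 cells; actives raise luminescence as potentiators of the MG132 stress response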
T6 sequence (P38532 whole entry): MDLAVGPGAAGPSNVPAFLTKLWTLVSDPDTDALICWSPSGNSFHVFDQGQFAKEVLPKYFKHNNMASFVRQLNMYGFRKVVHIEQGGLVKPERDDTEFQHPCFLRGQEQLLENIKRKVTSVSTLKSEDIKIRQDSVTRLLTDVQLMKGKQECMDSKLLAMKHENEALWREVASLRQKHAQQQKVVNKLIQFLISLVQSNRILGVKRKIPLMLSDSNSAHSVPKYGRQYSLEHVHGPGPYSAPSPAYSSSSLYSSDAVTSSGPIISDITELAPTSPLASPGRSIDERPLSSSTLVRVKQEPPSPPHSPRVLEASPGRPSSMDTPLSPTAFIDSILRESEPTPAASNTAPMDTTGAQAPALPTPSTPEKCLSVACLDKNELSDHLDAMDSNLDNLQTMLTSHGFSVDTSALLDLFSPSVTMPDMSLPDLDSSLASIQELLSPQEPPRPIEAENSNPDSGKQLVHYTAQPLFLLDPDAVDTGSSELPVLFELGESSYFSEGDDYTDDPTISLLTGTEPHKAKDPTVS

Sequence of Induced myeloid leukemia cell differentiation protein Mcl-1 (Q07820 whole entry): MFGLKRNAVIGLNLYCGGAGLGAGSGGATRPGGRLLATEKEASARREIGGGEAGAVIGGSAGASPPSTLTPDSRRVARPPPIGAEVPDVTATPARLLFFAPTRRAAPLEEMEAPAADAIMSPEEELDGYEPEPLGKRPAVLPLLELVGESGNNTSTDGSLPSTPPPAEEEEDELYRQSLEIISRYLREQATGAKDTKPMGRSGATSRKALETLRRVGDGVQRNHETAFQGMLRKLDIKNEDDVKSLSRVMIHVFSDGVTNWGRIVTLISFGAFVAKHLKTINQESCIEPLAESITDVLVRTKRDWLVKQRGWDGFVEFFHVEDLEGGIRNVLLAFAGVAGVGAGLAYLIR
Sequence of Nonstructural protein 1 (Q194T2 whole entry): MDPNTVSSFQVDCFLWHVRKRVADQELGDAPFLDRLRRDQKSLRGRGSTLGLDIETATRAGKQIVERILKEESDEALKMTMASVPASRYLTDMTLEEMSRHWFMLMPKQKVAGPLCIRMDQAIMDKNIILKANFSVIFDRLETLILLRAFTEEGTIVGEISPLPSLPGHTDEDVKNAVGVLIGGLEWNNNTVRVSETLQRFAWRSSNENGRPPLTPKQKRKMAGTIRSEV
Sequence of Cytochrome P450 3A4 (P08684 whole entry): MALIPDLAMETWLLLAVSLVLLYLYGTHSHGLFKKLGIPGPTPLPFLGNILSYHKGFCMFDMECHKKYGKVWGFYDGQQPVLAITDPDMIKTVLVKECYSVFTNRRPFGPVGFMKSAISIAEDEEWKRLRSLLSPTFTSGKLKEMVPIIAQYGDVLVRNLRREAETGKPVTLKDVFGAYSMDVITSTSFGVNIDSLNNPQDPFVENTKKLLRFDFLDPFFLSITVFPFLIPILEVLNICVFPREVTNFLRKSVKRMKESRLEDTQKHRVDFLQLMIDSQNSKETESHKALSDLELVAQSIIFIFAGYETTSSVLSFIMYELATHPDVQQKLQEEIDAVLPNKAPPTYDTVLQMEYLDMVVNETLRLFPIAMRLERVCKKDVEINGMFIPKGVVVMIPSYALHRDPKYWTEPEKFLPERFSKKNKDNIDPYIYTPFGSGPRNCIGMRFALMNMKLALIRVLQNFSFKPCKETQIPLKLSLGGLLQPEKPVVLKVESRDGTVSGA

COc1cccc2cc(-c3cn4ccc(C)cc4n3)c(=O)oc12
IC50 (Estrogen receptor): 7.85 µM (active)

N=c1c(C(=O)NCc2ccc(F)cc2)cc2c(=O)n3ccccc3nc2n1Cc1cccnc1
EC50 [1]: 31.2 µM (inconclusive)
EC50 [2]: > 60 µM (not active)
EC50 [3]: 1.22 µM (active)
IC50 (Estrogen receptor): 7.04 µM (active)
EC50 [4]: 46 µM (active)

O=C1NN(c2ccc(Cl)c(Cl)c2)C(=O)/C1=C/c1cccc(OC(=O)c2cccs2)c1
IC50 [5]: 3.81 µM (active)
IC50 (Estrogen receptor): > 50 µM (not active)

COc1cc(OC)c2c(-c3ccccc3)cc(=O)oc2c1C(CCN1CCCCC1)c1ccc(N(C)C)cc1 (centres undefined)
IC50 (Nonstructural protein 1): 11.9 µM (active)

CCOC(=O)c1[nH]c2c(c1C)C(=O)CC(c1ccco1)C2 (centres undefined)
EC50 (BJ [6]): 0.594 µM (active)
EC50 (BJ [7]): 0.334 µM (active)
EC50 [8]: 0.328 µM (active)
IC50 [9]: > 80 µM (inactive)
IC50 [5]: 6.08 µM (active)
EC50 (BJ [10]): 0.354 µM (inconclusive)
IC50 (Estrogen receptor): 30.3 µM (not active)

O=C(c1cccc(F)c1)N1CCC2(CC1)CCN(c1cccc(-c3ccccc3)c1)CC2
AC50 (Cytochrome P450 3A4): inconclusive
AC50 (Cytochrome P450 1A2): 20 µM (inconclusive)

O=C(NCCSCc1ccccc1)c1ccc(Cl)c(S(=O)(=O)N2CCOCC2)c1
AC50 [11]: > 100 µM (inactive)

N=c1c2c(-c3ccccc3)c(-c3ccccc3)n(Cc3ccco3)c2ncn1CCCN1CCOCC1
AC50 (INS1): 14.3 µM (active)
EC50 [12]: > 260 µM (inactive)
EC50 [2]: > 60 µM (not active)
EC50 [3]: 1.49 µM (active)
AC50 [11]: 77.3 µM (active)
